# The source made the active and inactive calls. No cut-off for these calls is given here.
# How the values were obtained:
# Format in all cases: functional
# [1] = tested on: Mycolicibacterium smegmatis; assay: Antibiofilm activity against Mycobacterium smegmatis 700084 assessed as eradication of preformed bacterial biofilm incubated for 24 hrs by crystal violet staining based assay
# [2] = tested on: Corynebacterium glutamicum; assay: (§1) Antibacterial activity of against Corynebacterium glutamicum 13032 assessed as Ac-Kaa-induced neutralization of antibiotic effect by measuring molar excess ratio of smallest concentration of AC-Kaa required to neutralize antibiotic effect to MIC of antibiotic at 0.25 uM incubated for 48 hrs by resazurin dye based broth microdilution method
# [3] = tested on: Mycobacteroides abscessus; assay: Antibacterial activity against Mycobacterium abscessus 19977 assessed as elimination of viable bacteria at 2 times MIC measured after 50 hrs by time kill assay relative to control
# [4] = tested on: Corynebacterium glutamicum; assay: Antibacterial activity against Corynebacterium glutamicum 13032 assessed as inhibition of bacterial growth incubated for 18 to 20 hrs by broth microdilution method; settings: time 18-20 hrs
# [5] = tested on: Mycolicibacterium smegmatis; assay: Antibacterial activity against Mycobacterium smegmatis 700084 assessed as inhibition of bacterial growth incubated for 48 hrs by resazurin dye based broth microdilution method
# [6] = tested on: Mycolicibacterium smegmatis; assay: Inhibition of peptidoglycan biosynthesis in Mycobacterium smegmatis 700084 assessed as increase in N-glycolyl modified precursor UDP-MurNGlyc-pentapeptide accumulation at 10 uM incubated for 4 hrs by RP-HPLC method
# Mycobacterium kansasii = assay: Antibacterial activity against Mycobacterium kansasii 12478 assessed as inhibition of bacterial growth incubated for 6 to 7 days by resazurin dye based broth microdilution method; settings: time 6-7 day
# [7] = tested on: Mycolicibacterium smegmatis; assay: Synergistic antibacterial activity against Mycobacterium smegmatis 700084 assessed as fractional inhibitory concentration index incubated for 48 hrs in presence of ethambutol by checkerboard assay
# Mycobacterium avium [8] = assay: Antibacterial activity against Mycobacterium avium 25291 assessed as inhibition of bacterial growth incubated for 6 to 7 days by resazurin dye based broth microdilution method; settings: time 6-7 day
# [9] = tested on: Mycobacteroides abscessus; assay: Synergistic antibacterial activity against Mycobacterium abscessus 19977 assessed as test compound MIC incubated for 72 hrs in presence of 78 uM ethambutol by checkerboard assay
# Mycobacterium avium [10] = assay: Antibacterial activity against Mycobacterium avium 700898 assessed as inhibition of bacterial growth incubated for 6 to 7 days by resazurin dye based broth microdilution method; settings: time 6-7 day
# [11] = tested on: Mycolicibacterium smegmatis; assay: as §1, with “Mycobacterium smegmatis 700084” for “Corynebacterium glutamicum 13032”, “16” for “0.25”
# [12] = tested on: Mycobacteroides abscessus; assay: Synergistic antibacterial activity against Mycobacterium abscessus 19977 assessed as test compound MIC incubated for 72 hrs in presence of 39 uM ethambutol by checkerboard assay
# [13] = tested on: Mycolicibacterium smegmatis; assay: Inhibition of biofilm formation in Mycobacterium smegmatis 700084 assessed as reduction in wrinkled pellicle formation incubated for 5 days; settings: time 5 day
# [14] = tested on: Mycobacteroides abscessus; assay: Antibacterial activity against Mycobacterium abscessus 19977 assessed as inhibition of bacterial growth incubated for 72 hrs by resazurin dye based broth microdilution method
# Bacillus subtilis [15] = assay: Antibacterial activity against Bacillus subtilis 23857 assessed as inhibition of bacterial growth incubated for 18 to 20 hrs by broth microdilution method; settings: time 18-20 hrs
# [16] = tested on: Mycobacteroides abscessus; assay: Synergistic antibacterial activity against Mycobacterium abscessus 19977 assessed as fractional inhibitory concentration index incubated for 72 hrs in presence of ethambutol by checkerboard assay
# Bacillus subtilis [17] = assay: as §1, with “Bacillus subtilis 23857” for “Corynebacterium glutamicum 13032”
SMILES,MBEC [1],Ratio [2],Activity [3],MIC [4],MIC [5],inhibition [6],MIC (Mycobacterium kansasii),fractional inhibitory concentration index (FICI) [7],MIC (Mycobacterium avium [8]),MIC [9],MIC (Mycobacterium avium [10]),Ratio [11],MIC [12],BBC [13],MIC [14],MIC (Bacillus subtilis [15]),fractional inhibitory concentration index (FICI) [16],Ratio (Bacillus subtilis [17])
CC[C@@H](CO)NCCN[C@@H](CC)CO [ETHAMBUTOL],>256 µg/mL,–,–,–,–,–,–,–,–,–,–,–,–,–,–,–,–,–
CO[C@H]1/C=C/O[C@@]2(C)Oc3c(C)c(O)c4c(O)c(c(/C=N/N5CCN(C)CC5)c(O)c4c3C2=O)NC(=O)/C(C)=C\C=C\[C@H](C)[C@H](O)[C@@H](C)[C@@H](O)[C@@H](C)[C@H](OC(C)=O)[C@@H]1C [RIFAMPIN],156 µM,–,–,–,–,–,–,–,–,–,–,–,–,–,–,–,–,–
CN[C@H](CC(C)C)C(=O)N[C@H]1C(=O)N[C@@H](CC(N)=O)C(=O)N[C@H]2C(=O)N[C@H]3C(=O)N[C@H](C(=O)N[C@H](C(=O)O)c4cc(O)cc(O)c4-c4cc3ccc4O)[C@H](O)c3ccc(c(Cl)c3)Oc3cc2cc(c3O[C@@H]2O[C@H](CO)[C@@H](O)[C@H](O)[C@H]2O[C@H]2C[C@](C)(N)[C@H](O)[C@H](C)O2)Oc2ccc(cc2Cl)[C@H]1O [VANCOMYCIN],64 µM,62.5,>95%,0.25 µM,8 µM,Active,24 µM,0.28,> 256 µM,2 µM,64 µM,3.9,3 µM,0.5 µM,64 µM,0.25 µM,0.17,15.6
